Test results published in ChEMBL document CHEMBL5137107, “Optimization of hERG and Pharmacokinetic Properties for Basic Dihydro-8H-purin-8-one Inhibitors of DNA-PK” (ACS Med Chem Lett, 2022).
Values after ≈ are worked out from the molar mass of the structure shown.

Key:
[1] = Cardiotoxicity in guinea pig assessed as increase in QTc level by measuring unbound Cmax at 3 to 30 mg/kg administered as iv infusion consecutively for 15 mins; assay type: toxicity, organism-based, Cavia porcellus; conditions: in vivo, dose 3-30 mg/kg
[2] = 1-Octanol/aqueous buffer partition coefficient, logD of the compound at pH 7.4 by shake flask technique based UPLC analysis; assay type: physicochemical
[3] = Acid dissociation constant, pKa of the compound; assay type: physicochemical
[4] = Apparent permeability of compound across apical to basal membrane in human Caco-2 by ABBA assay; assay type: ADME, cell-based
[5] = Oral bioavailability in Beagle dog at 2 mg/kg; assay type: ADME, organism-based, Canis lupus familiaris; conditions: in vivo
[6] = Volume of distribution at steady state in Han Wistar rat at 5 mg/kg, po or 2 mg/kg, iv; assay type: ADME, organism-based; conditions: in vivo
[7] = Oral bioavailability in Han Wistar rat at 5 mg/kg; assay type: ADME, organism-based; conditions: in vivo
[8] = Volume of distribution at steady state in Beagle dog at 2 mg/kg, po or 1 mg/kg, iv; assay type: ADME, organism-based, Canis lupus familiaris; conditions: in vivo
[9] = Solubility of the compound in FaSSIF at pH 6.5; assay type: physicochemical
[10] = Solubility of the compound; assay type: physicochemical
[11] = Cardiotoxicity in guinea pig assessed as unbound concentration required to increase in QTc level by 10% administered as iv infusion consecutively for 15 mins; assay type: toxicity, organism-based, Cavia porcellus; conditions: in vivo

Row | SMILES | logD [2] | pKa [3] | other results
1 | Cc1cc2ncccc2cc1Nc1ncc2c(n1)n(C1CCOCC1)c(=O)n2C | 2.5 |  | 
2 | Cc1cc2nccnc2cc1Nc1ncc2c(n1)n(C1CCOCC1)c(=O)n2C | 2.2 |  | 
3 | COCCN1CC[C@H](n2c(=O)n(C)c3cnc(Nc4cc5cccnc5cc4C)nc32)C1 | 1.7 |  | 
4 | Cc1cc2ncccc2cc1Nc1ncc2c(n1)n([C@@H]1CN(C)C[C@@H]1F)c(=O)n2C | 2.2 |  | 
5 | Cc1cc2ncnn2cc1Nc1ncc2c(n1)n(C1CCOCC1)c(=O)n2C [AZD-7648] | 1.3 |  | 
6 | Cc1cc2ncccc2cc1Nc1ncc2c(n1)n([C@H]1CCN(C3COC3)C1)c(=O)n2C | 1.5 |  | 
7 | Cc1cc2ncccc2cc1Nc1ncc2c(n1)n([C@@H]1CN(C)C[C@H]1F)c(=O)n2C | 2.1 | 6.5 | 
8 | Cc1cc2ncnn2cc1Nc1ncc2c(n1)n(C1CCN(C)CC1)c(=O)n2C | 0.3 |  | 
9 | Cc1cc2ncccc2cc1Nc1ncc2c(n1)n([C@@H]1CNC[C@@H]1F)c(=O)n2C | 1.7 | 7.2 | 
10 | Cc1cc2ncncc2cc1Nc1ncc2c(n1)n(C1CCOCC1)c(=O)n2C | 2.2 |  | 
11 | Cc1cc2nnccc2cc1Nc1ncc2c(n1)n(C1CCOCC1)c(=O)n2C | 2.2 |  | 

The next lines start with results.

Row | logD [2] | pKa [3] | SMILES | other results
12 | 1.1 | 8.9 | Cc1cc2ncccc2cc1Nc1ncc2c(n1)n([C@H]1CCN(C)C1)c(=O)n2C | EC10 [1]: 3.9 µM; Papp A→B [4]: 19 ×10⁻⁶ cm/s
13 | 1.2 |  | Cc1cc2nccnc2cc1Nc1ncc2c(n1)n(C1CCN(C)CC1)c(=O)n2C | 
14 | 1.6 | 7.3 | Cc1cc2ncccc2cc1Nc1ncc2c(n1)n([C@@H]1CNC[C@H]1F)c(=O)n2C | bioavailability [5]: 52%; Vdss [6]: 2.1 L/kg; bioavailability [7]: 58%; Vdss [8]: 5.4 L/kg; Papp A→B [4]: 9.4 ×10⁻⁶ cm/s; solubility [9]: 872 µM (≈ 343 µg/mL)
15 | 1.8 | 8.2 | Cc1cc2ncccc2cc1Nc1ncc2c(n1)n(C1CCN(C)CC1)c(=O)n2C | solubility [10]: 178 µM (≈ 71.8 µg/mL); EC10 [11]: 2.3 µM; Papp A→B [4]: 14 ×10⁻⁶ cm/s
16 | 0.9 | 8.2 | Cc1cc2ncccc2cc1Nc1ncc2c(n1)n([C@H]1CCN(CCO)C1)c(=O)n2C | Papp A→B [4]: 2.6 ×10⁻⁶ cm/s
17 | 1.2 |  | Cc1cc2nnccc2cc1Nc1ncc2c(n1)n(C1CCN(C)CC1)c(=O)n2C | 
18 | 1.2 | 8.7 | Cc1cc2ncccc2cc1Nc1ncc2c(n1)n([C@@H]1CCN(C)C1)c(=O)n2C | 
19 | 0.5 |  | Cc1cc2ncccc2cc1Nc1ncc2c(n1)n(C1CCNCC1)c(=O)n2C | Papp A→B [4]: 0.7 ×10⁻⁶ cm/s
